US20080026996A1, “Selective Vpac2 Receptor Reptide Agonists” (ELI LILLY AND COMPANY, priority 2004, published 2008)
Where a SMILES comes first, the peptide text is derived from it. Where no end group is shown, it is not given here. [ ]: non-standard residue; d: D form. The star is where a group is joined. Orn = NCCC[C@H](N)C(=O)O; Hexanoyl = CCCCCC(=O)*; Aib = CC(C)(N)C(=O)O

Legend:
human VPAC2 [1] = target: T1, human VPAC2 (Homo sapiens, UniProt P41587); assay: Alpha screen cAMP in vitro potency, human VPAC2 receptor; format: cell-based; details: cAMP generation; single result from two analyses performed in a single run; read-out: Human VPAC2 Receptor: Alpha Screen EC50
T1 construct: expressed in transfected cells
T1 sequence (P41587 24-438): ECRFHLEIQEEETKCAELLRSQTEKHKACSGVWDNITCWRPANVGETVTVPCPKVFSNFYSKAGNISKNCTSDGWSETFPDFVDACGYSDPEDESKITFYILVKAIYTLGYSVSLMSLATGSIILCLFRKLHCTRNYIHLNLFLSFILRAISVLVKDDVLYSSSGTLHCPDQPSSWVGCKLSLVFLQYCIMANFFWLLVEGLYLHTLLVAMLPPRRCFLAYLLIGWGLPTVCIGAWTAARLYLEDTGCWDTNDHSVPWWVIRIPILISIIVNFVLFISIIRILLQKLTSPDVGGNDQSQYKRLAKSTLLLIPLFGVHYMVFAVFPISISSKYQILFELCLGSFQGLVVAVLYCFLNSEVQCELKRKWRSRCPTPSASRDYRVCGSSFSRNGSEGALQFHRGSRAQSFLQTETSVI
In short: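 This followed a 60 min stimulation of 50,000 enzyme-free-dissociated cells per point with acceptor beads in stimulation buffer.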

human VPAC2 [2] = target: T1, human VPAC2; assay: Filter binding assay, membranes of stable VPAC2 cell line, 125I-labeled VIP tracer (Table 2); details: read-out: Human VPAC2 Receptor Binding
In short: (§1)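 Radioligand displacement was measured with 2.5 μg membrane protein per well and roughly 40000 cpm of iodinated tracer. After a 1-hour incubation, bound and free label were separated on BSA-blocked glass-fibre filters and quantified by scintillation.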

[3] = Rat serum stability studies (remaining active peptide by DiscoveRx cAMP on CHO-VPAC2 cells); format: in vitro ADME
In short: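 EC50 from a DiscoveRx cAMP read-out on CHO-VPAC2 cells indexes how much peptide stays active after 18 h in rat serum at 37° C without aprotinin, against an aprotinin-protected 4° C aliquot.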

human VPAC1 = target: T2, human VPAC1 (Homo sapiens, UniProt P32241); assay: Filter binding assay, membranes of cells transiently transfected with human VPAC1, 125I-labeled VIP tracer (Table 2); design: expressed in transfected cells; details: read-out: Human VPAC1 Receptor Binding
T2 sequence (P32241 31-457): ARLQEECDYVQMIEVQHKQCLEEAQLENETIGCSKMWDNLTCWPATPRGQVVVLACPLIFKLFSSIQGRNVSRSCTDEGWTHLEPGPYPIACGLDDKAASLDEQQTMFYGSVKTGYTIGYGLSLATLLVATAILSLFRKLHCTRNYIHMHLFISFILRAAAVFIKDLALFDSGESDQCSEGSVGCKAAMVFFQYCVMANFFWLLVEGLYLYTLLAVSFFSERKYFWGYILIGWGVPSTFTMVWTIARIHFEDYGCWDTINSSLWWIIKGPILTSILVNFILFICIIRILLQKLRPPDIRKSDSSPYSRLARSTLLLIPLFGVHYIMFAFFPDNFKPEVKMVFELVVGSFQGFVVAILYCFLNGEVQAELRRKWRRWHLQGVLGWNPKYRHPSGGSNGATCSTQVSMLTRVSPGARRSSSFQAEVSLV
In short: as §1

human PAC1 = target: T3, human PAC1 (Homo sapiens, UniProt P41586); assay: Filter binding assay, membranes of cells transiently transfected with human PAC1, 125I-labeled PACAP-27 tracer (Table 2); design: expressed in transfected cells; details: read-out: Human PAC1 Receptor Binding
T3 sequence (P41586 21-468): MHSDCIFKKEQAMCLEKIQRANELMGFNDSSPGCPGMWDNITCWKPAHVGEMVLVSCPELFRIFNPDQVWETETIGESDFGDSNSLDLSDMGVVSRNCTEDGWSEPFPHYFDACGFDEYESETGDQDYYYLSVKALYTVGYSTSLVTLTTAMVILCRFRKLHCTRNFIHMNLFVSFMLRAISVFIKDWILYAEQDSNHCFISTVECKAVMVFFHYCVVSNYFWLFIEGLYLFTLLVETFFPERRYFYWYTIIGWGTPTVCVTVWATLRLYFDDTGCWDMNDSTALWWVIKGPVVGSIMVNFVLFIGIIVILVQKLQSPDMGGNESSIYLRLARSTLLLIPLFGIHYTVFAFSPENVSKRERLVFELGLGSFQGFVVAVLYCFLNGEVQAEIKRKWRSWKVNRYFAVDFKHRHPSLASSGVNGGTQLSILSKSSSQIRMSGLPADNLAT
In short: as §1

| Compound | EC50 (human VPAC2 [1]) [nM] | IC50 (human VPAC2 [2]) [nM] | Rat Serum Stability (estimated purity in % after 18 hours) [3] [%] | IC50 (human VPAC1) [nM] | IC50 (human PAC1) [nM] | Rat Serum Stability (Estimated purity in % after 72 hours) [3] [%] |
| --- | --- | --- | --- | --- | --- | --- |
| Hexanoyl-HSDAVFTDNYTRLRKQVAAFKYLQSIKNKRYGGPSSGAPPPS [Agonist P148] | 0.1 | 0.77 | <0.10 | 247 | 1000 |  |
| Hexanoyl-HSDAVFTDNYTRLRKQVAAKAYLQSIKNKRYGGPSSGAPPPS [Agonist P184] | 0.22 | 0.23 | 0.29 | 324 | 339 |  |
| Hexanoyl-HVDAVFTDNYTRLRKQVAAKKYLQSIKNKRYGGPSSGAPPPS [Agonist P99] | 0.14 | 1.72 | 0.61 | 394 | 2060 |  |
| Hexanoyl-HSDAVFTDNYTRLRKQVAATKYLQSIKNKRYGGPSSGAPPPS [Agonist P152] | 0.17 | 0.37 | 0.06 | 514 | 672 |  |
| Hexanoyl-HSDAVFTDNYTRLLKQVAAKKYLQSIKNKRYGGPSSGAPPPS [Agonist P174] | 0.26 | 55.1 | 1.91 | 302 | 621 |  |
| Hexanoyl-HSDAVFTDNYTRLQKQVAAKKYLQSIKNKRYGGPSSGAPPPS [Agonist P172] | 0.29 | 3.58 | 5.95 | 412 | 500 |  |
| Hexanoyl-HSDAVFTDNYTRLRRQVAAKKYLQSIKNKRYGGPSSGAPPPS [Agonist P176] | 0.28 | 6.88 | <0.14 | 93 | 227 |  |
| Hexanoyl-HSD[Aib]VFTDNYTRLRKQVAAKKYLQSIKNKRYGGPSSGAPPPS [Agonist P209] | 0.1 | 0.2 | 0.13 | 130 | 343 |  |
| Hexanoyl-HSDAVFTDNYTRLRKQVAAKKYIQSIKNKRYGGPSSGAPPPS [Agonist P233] | 0.11 | 0.31 | 1.27 | 323 | 320 |  |
| Hexanoyl-HSDAVFTDNYTRLL[Aib]QVAA[Aib]KYLQSIKNKRYGGPSSGAPPPS [Agonist P317] | 0.36 | 1.23 | 33.34 | > 3000 | > 25000 | 21.5 |
| Hexanoyl-HSDAVFTDNYTRLRKQVAAKKYVQSIKNKRYGGPSSGAPPPS [Agonist P234] | 0.16 | 0.33 | 0.69 | 641 | 248 |  |
| Hexanoyl-HSDAVFTDNYTRLAKQVAAKKYLQSIKNKRYGGPSSGAPPPS [Agonist P173] | 0.25 | 0.55 | 1.04 | 1790 | 756 |  |
| Hexanoyl-HSDAVFTKNYTRLRKQVAAKKYLQSIKNKRYGGPSSGAPPPS [Agonist P160] | 13.2 | 4.77 | <4.25 | 50.3 | 262 |  |
| Hexanoyl-HSDAVFTDNYTRL[Orn][Aib]QVAA[Aib]KYLQSIKNKRYGGPSSGAPPPS [Agonist P319] | 0.26 | 0.69 | 13.53 | > 3000 | > 25000 |  |
| Hexanoyl-HSDAVFTDNYTRLRAQLAAQKYLQSIKNKRYGGPSSGAPPPS [Agonist P142] | 0.15 | 0.58 | 0.51 | 364 | 1190 |  |
| Hexanoyl-HSDAVFTDNYTRLR[Aib]QVAALKYLQSIKNKRYGGPSSGAPPPS [Agonist P265] | 0.21 | 0.68 | 8.70 | > 3000 | > 25000 |  |
| Hexanoyl-HSDAVFTDNYTRLRKQVAAKKY[Aib]QSIKNKRYGGPSSGAPPPS [Agonist P236] | 0.12 | 0.37 | 0.79 | 589 | 225 |  |
| Hexanoyl-HSDAVFTDNYTRLFKQVAAKKYLQSIKNKRYGGPSSGAPPPS [Agonist P175] | 0.68 | 13.3 | <0.11 | > 3000 | > 25000 |  |
| Hexanoyl-HSDAVFTDNYTRLRKQLAAKKYLQSIKNKRYGGPSSGAPPPS [Agonist P290] | 0.22 | 0.27 | 0.11 | 221 | 209 |  |
| Hexanoyl-HSDAVFTDNYTRL[Aib]KQVAAQKYLQSIKNKRYGGPSSGAPPPS [Agonist P243] | 0.28 | 5.51 | 12.12 | > 3000 | > 25000 |  |
| CCCCCC(=O)N[C@@H](Cc1c[nH]cn1)C(=O)N[C@@H](CO)C(=O)N[C@@H](CC(=O)O)C(=O)N[C@@H](C)C(=O)N[C@H](C(=O)N[C@@H](Cc1ccccc1)C(=O)N[C@H](C(=O)N[C@@H](CC(=O)O)C(=O)N[C@@H](CC(N)=O)C(=O)N[C@@H](Cc1ccc(O)cc1)C(=O)N[C@H](C(=O)N[C@@H](CCCNC(=N)N)C(=O)N[C@@H](CC(C)C)C(=O)N[C@@H](CCCNC(=N)N)C(=O)NC(C)(C)C(=O)N[C@@H](CCC(N)=O)C(=O)N[C@H](C(=O)N[C@@H](C)C(=O)N[C@@H](C)C(=O)N[C@@H](CCCCN)C(=O)NC(C)(C)C(=O)N[C@@H](Cc1ccc(O)cc1)C(=O)N[C@@H](CC(C)C)C(=O)N[C@@H](CCC(N)=O)C(=O)N[C@@H](CO)C(=O)N[C@H](C(=O)N[C@@H](CCCCN)C(=O)N[C@@H](CCC(N)=O)C(=O)NCC(=O)NCC(=O)N1CCC[C@H]1C(=O)N[C@@H](CO)C(=O)N[C@@H](CO)C(=O)NCC(=O)N[C@@H](C)C(=O)N1CCC[C@H]1C(=O)N1CCC[C@H]1C(=O)N1CCC[C@H]1C(=O)N[C@@H](CO)C(=O)O)[C@@H](C)CC)C(C)C)[C@@H](C)O)[C@@H](C)O)C(C)C [Agonist P298] (Hexanoyl-HSDAVFTDNYTRLR[Aib]QVAAK[Aib]YLQSIKQGGPSSGAPPPS-OH; C-terminus assumed) | 0.5 | 8.2 | 30.97 | > 3000 | > 25000 |  |
| Hexanoyl-HSDAVFTDNYTRLRKQVAAKRYLQSIKNKRYGGPSSGAPPPS [Agonist P182] | 0.29 | 0.17 | 0.15 | 205 | 429 |  |
| Hexanoyl-HSDAVFTDNYTRL[Aib]KQLAA[Aib]KYLQSIKNKRYGGPSSGAPPPS [Agonist P240] | 0.51 | 6.08 | 43.87 | > 3000 | > 25000 | 10.4 |
